Patent publication US12384801B2, “Benzothiophene, thienopyridine and thienopyrimidine derivatives for the modulation of sting” (CTXT PTY LTD, priority 2019, dated 2025)

How the values were obtained:
[1] = molecular target: human HAQ isoform of STING (Homo sapiens (Human), UniProt Q86WV6, G230A/H232R/R293Q/R71H); assay: THP-1 STING Lucia ISG reporter cell line assay; assay type: cell-based; settings: 24 h incubation, luminescence, normalized to ML RR-S2 CDA 40 μM; read-out: EC50 THP-I STING Lucia ISG cells
Method: (§1) THP-1 STING Lucia ISG cells (InvivoGen #thpl-isg) were cultured in RPMI-1640 containing 2 mM L-glutamine, 25 mM HEPES, 100 μg/mL Normocin (InvivoGen) and 10% heat-inactivated FBS. Cells were seeded at a density of 7×10^5 cells/mL, maintained at 37° C./5% CO2, and passaged every 3-4 days. Selection pressure was maintained by the addition of 100 μg/mL Zeocin every second passage.
(§2) Assay conditions: cells were harvested and resuspended at a concentration of 5×10^5 cells/mL in fresh growth media. Of this cell preparation 20 μL per well was dispensed into 384 well cell culture plates (Greiner, #781098X) and incubated at 37° C./5% CO2 for 2 hours.
(§3) Concentration Response Curves (commonly 11 doses) were prepared by 2.5 fold serial dilution starting from 10 mM compound stock solution in DMSO. Compound dilutions were transferred into the cell culture plates using a pintool (0.1 μL transfer), control wells were matched for DMSO. Positive control wells received ML RR-S2 CDA (Med Chem Express HY12885B) in 5 μL of media to a final concentration of 40 μM. All other wells received additional 5 μL of media only to equalize volume. The plates were incubated for 24 h at 37° C./5% CO2.
(§4) For the detection step, QUANTI-Luc (InvivoGen #rep-qlc1) was prepared according to manufacturer's instruction and 10 μL were added per well to the culture plates. Plates were shaken for ten seconds on an orbital shaker and left in the dark at room temperature for two minutes, before luminescence was read on a Perkin Elmer Envision plate reader.
(§5) Data analysis: Luminescence raw data was normalized % activity relative to the signal of the positive control wells and negative control wells which were not treated with compound. The following formula was used to calculate normalized % activity from raw signals: % activity=(sample−negative)/(positive−negative)
(§6) The THP-1 STING Lucia ISG cell EC50 provides an assessment of activity at the human HAQ isoform of STING. For assessing compound activity against the WT human STING isoform, an equivalent method was conducted where the cells used were THP-1-Dual KI-hSTING-R232 (InvivoGen #thpd-r232).

[2] = molecular target: WT human STING isoform (Homo sapiens (Human), UniProt Q86WV6, H232R); assay: THP-1-Dual KI-hSTING-R232 reporter cell line assay; assay type: cell-based; settings: 24 h incubation, luminescence, normalized to ML RR-S2 CDA 40 μM; read-out: EC50 THP-1 Dual KI-hSTING-R232 cells
Method: as §1, §2, §3, §4, §5, §6

[3] = molecular target: T1, human STING (HAQ) (Homo sapiens (Human), UniProt Q86WV6, G230A/H232R/R293Q); assay: Differential scanning fluorimetry (DSF), huSTING (HAQ); assay type: binding; settings: compound 100 μM, 2 μM protein, Tm with ligand minus Tm of protein alone (1% DMSO)
Method: (§7) Data were analyzed using “Meltdown analysis” protocol described by Rosa (2015).

[4] = molecular target: human STING (WT) (Homo sapiens (Human), UniProt Q86WV6, H232R); assay: Differential scanning fluorimetry (DSF), huSTING (WT); assay type: binding; settings: compound 100 μM, 2 μM protein, Tm with ligand minus Tm of protein alone (1% DMSO)
Method: as §7

[5] = molecular target: T1, human STING (HAQ); assay: Surface Plasmon Resonance (SPR), STING (HAQ); settings: read-out: SPR (HAQ) KD; biotinylated STING on streptavidin chip, 8° C.

human HAQ isoform of STING, sequence (Q86WV6 whole entry R71H/G230A/H232R/R293Q, canonical isoform): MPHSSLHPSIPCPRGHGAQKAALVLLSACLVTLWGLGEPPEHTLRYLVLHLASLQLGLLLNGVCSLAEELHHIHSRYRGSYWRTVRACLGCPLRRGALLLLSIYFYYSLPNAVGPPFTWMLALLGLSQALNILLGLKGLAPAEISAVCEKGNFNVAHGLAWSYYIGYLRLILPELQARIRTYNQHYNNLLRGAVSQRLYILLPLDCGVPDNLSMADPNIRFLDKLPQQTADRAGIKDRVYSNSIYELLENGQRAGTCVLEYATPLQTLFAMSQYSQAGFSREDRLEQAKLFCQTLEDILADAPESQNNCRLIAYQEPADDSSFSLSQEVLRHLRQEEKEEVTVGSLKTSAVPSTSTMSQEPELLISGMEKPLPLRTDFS
WT human STING isoform, sequence (Q86WV6 whole entry H232R, canonical isoform): as the sequence (Q86WV6 whole entry R71H/G230A/H232R/R293Q, canonical isoform) above, with H71R, A230G, Q293R counted along it
human STING (WT), sequence (Q86WV6 149-345 H232R): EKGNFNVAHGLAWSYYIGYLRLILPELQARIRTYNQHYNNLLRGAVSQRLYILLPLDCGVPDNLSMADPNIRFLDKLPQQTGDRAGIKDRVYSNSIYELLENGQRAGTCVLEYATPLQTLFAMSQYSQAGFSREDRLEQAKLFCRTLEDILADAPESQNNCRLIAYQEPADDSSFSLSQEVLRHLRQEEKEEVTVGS
T1 sequence (Q86WV6 149-345 G230A/H232R/R293Q): as the sequence (Q86WV6 149-345 H232R) above, with G82A, R145Q counted along it

| EC50 [1] [µM] | EC50 [2] [µM] | ΔTm at 100 µM [3] [°C] | ΔTm at 100 µM [4] [°C] | DSF huSTING (WT) ΔTm [4] [°C] | SMILES | Kd [5] [µM] | DSF huSTING (HAQ) ΔTm [3] [°C] |
| --- | --- | --- | --- | --- | --- | --- | --- |
| > 40 | > 40 |  |  |  | CCOC(=O)c1sc2ccnc(OC)c2c1-c1nc2cc(C(N)=O)ccc2n1CCn1c(-c2c(C(=O)OCC)sc3ccnc(OC)c23)nc2cc(C(N)=O)ccc21 [Example 6, Diethyl 3,3′-(ethane-1,2-diylbis(5-carbamoyl-1H-benzo[d]imidazole-1,2-diyl))bis(4-methoxythieno[3,2-c]pyridine-2-carboxylate)] |  |  |
| 9.53 | 3.17 |  |  |  | CCOC(=O)c1sc2c(F)ccc(Cl)c2c1-c1nc2cc(C(N)=O)ccc2n1CCn1c(-c2c(C(=O)OCC)sc3c(F)ccc(Cl)c23)nc2cc(C(N)=O)ccc21 [Example A2, Diethyl 3,3′-(ethane-1,2-diylbis(5-carbamoyl-1H-benzo[d]imidazole-1,2-diyl))bis(4-chloro-7-fluorobenzo[b]thiophene-2-carboxylate)] |  |  |
| > 40 | > 40 |  |  |  | CCOC(=O)c1sc2ccccc2c1-c1nc2cc(C(N)=O)ccc2n1CCn1c(-c2c(C(=O)OCC)sc3ccccc23)nc2cc(C(N)=O)ccc21 [Example 8, Diethyl 3,3′-(ethane-1,2-diylbis(5-carbamoyl-1H-benzo[d]imidazole-1,2-diyl))bis(benzo[b]thiophene-2-carboxylate)] |  |  |
| 2.6 | 3.66 |  |  | 2.74 | NC(=O)c1ccc2c(c1)nc(-c1c(C(=O)O)sc3cccc(C(F)(F)F)c13)n2CCn1c(-c2c(C(=O)O)sc3cccc(C(F)(F)F)c23)nc2cc(C(N)=O)ccc21 (single isomer, unassigned) [Example 19.2, 3,3′-(Ethane-1,2-diylbis(5-carbamoyl-1H-benzo[d]imidazole-1,2-diyl))bis(4-(trifluoromethyl)benzo[b]thiophene-2-carboxylic acid)] |  | 12.26 |
| > 40 | > 40 |  |  |  | CCOC(=O)c1sc2cccc(C#N)c2c1-c1nc2cc(C(N)=O)ccc2n1CCn1c(-c2c(C(=O)OCC)sc3cccc(C#N)c23)nc2cc(C(N)=O)ccc21 [Example 16, Diethyl 3,3′-(ethane-1,2-diylbis(5-carbamoyl-1H-benzo[d]imidazole-1,2-diyl))bis(4-cyanobenzo[b]thiophene-2-carboxylate)] |  |  |
| 1.01 | 0.498 |  |  | 35.685 | COc1c(C(N)=O)ccc2c1nc(-c1c(C(=O)O)sc3cccc(Cl)c13)n2CCn1c(-c2c(C(=O)O)sc3cccc(Cl)c23)nc2c(OC)c(C(N)=O)ccc21 (single isomer, unassigned) [Example 22.2, 3,3′-(Ethane-1,2-diylbis(5-carbamoyl-4-methoxy-1H-benzo[d]imidazole-1,2-diyl))bis(4-chlorobenzo[b]thiophene-2-carboxylic acid)] |  | 45.31 |
| > 40 | > 40 |  |  |  | CCOC(=O)c1sc2cccc(OCC)c2c1-c1nc2cc(C(N)=O)ccc2n1CCn1c(-c2c(C(=O)OCC)sc3cccc(OCC)c23)nc2cc(C(N)=O)ccc21 [Example 23, Diethyl 3,3′-(ethane-1,2-diylbis(5-carbamoyl-1H-benzo[d]imidazole-1,2-diyl))bis(4-ethoxybenzo[b]thiophene-2-carboxylate)] |  |  |
| 0.189 | 0.196 | 21.4 |  | 9.38 | NC(=O)c1ccc2c(c1)nc(-c1c(C(=O)O)sc3cccc(C(F)(F)F)c13)n2CCn1c(-c2c(C(=O)O)sc3cccc(C(F)(F)F)c23)nc2cc(C(N)=O)ccc21 (single isomer, unassigned) [Example 19.1, 3,3′-(Ethane-1,2-diylbis(5-carbamoyl-1H-benzo[d]imidazole-1,2-diyl))bis(4-(trifluoromethyl)benzo[b]thiophene-2-carboxylic acid)] |  |  |
| 0.256 | 0.13 | 45.5 | 37.7 |  | COc1c(C(N)=O)ccc2c1nc(-c1c(C(=O)O)sc3cccc(Cl)c13)n2CCn1c(-c2c(C(=O)O)sc3cccc(Cl)c23)nc2c(OC)c(C(N)=O)ccc21 (single isomer, unassigned) [Example 22.1, 3,3′-(Ethane-1,2-diylbis(5-carbamoyl-4-methoxy-1H-benzo[d]imidazole-1,2-diyl))bis(4-chlorobenzo[b]thiophene-2-carboxylic acid)] |  |  |
| 3.74 | > 40 |  |  |  | CCOC(=O)c1sc2cccc(C(F)(F)F)c2c1-c1nc2cc(C(N)=O)ccc2n1CCn1c(-c2c(C(=O)OCC)sc3cccc(C(F)(F)F)c23)nc2cc(C(N)=O)ccc21 [Example 18, Diethyl 3,3′-(ethane-1,2-diylbis(5-carbamoyl-1H-benzo[d]imidazole-1,2-diyl))bis(4-(trifluoromethyl)benzo[b]thiophene-2-carboxylate)] |  |  |
| 19.9 | 12.7 |  |  |  | CCOC(=O)c1sc2cccc(Br)c2c1-c1nc2cc(C(N)=O)ccc2n1CCn1c(-c2c(C(=O)OCC)sc3cccc(Br)c23)nc2cc(C(N)=O)ccc21 [Example 10, Diethyl 3,3′-(ethane-1,2-diylbis(5-carbamoyl-1H-benzo[d]imidazole-1,2-diyl))bis(4-bromobenzo[b]thiophene-2-carboxylate)] |  |  |
| 5.08 | 9.18 |  |  |  | CCOC(=O)c1sc2c(F)ccc(OC)c2c1-c1nc2cc(C(N)=O)ccc2n1CCn1c(-c2c(C(=O)OCC)sc3c(F)ccc(OC)c23)nc2cc(C(N)=O)ccc21 [Example 12, Diethyl 3,3′-(ethane-1,2-diylbis(5-carbamoyl-1H-benzo[d]imidazole-1,2-diyl))bis(7-fluoro-4-methoxybenzo[b]thiophene-2-carboxylate)] |  |  |
| 0.019 | 0.007 | 4.33 | 3.41 |  | CCOC(=O)c1sc2cccc(Cl)c2c1-c1nc2c(OC)c(C(N)=O)ccc2n1CCn1c(-c2c(C(=O)OCC)sc3cccc(Cl)c23)nc2c(OC)c(C(N)=O)ccc21 [Example 21, Diethyl 3,3′-(ethane-1,2-diylbis(5-carbamoyl-4-methoxy-1H-benzo[d]imidazole-1,2-diyl))bis(4-chlorobenzo[b]thiophene-2-carboxylate)] |  |  |
| > 40 | > 40 |  |  |  | CCOC(=O)c1sc2cccc(C)c2c1-c1nc2cc(C(N)=O)ccc2n1CCn1c(-c2c(C(=O)OCC)sc3cccc(C)c23)nc2cc(C(N)=O)ccc21 [Example 14, Diethyl 3,3′-(1,1′-(ethane-1,2-diyl)bis(5-carbamoyl-1H-benzo[d]imidazole-2,1-diyl))bis(4-methylbenzo[b]thiophene-2-carboxylate)] |  |  |

| SMILES | EC50 [1] [µM] | EC50 [2] [µM] | ΔTm at 100 µM [3] [°C] | ΔTm at 100 µM [4] [°C] | DSF huSTING (WT) ΔTm [4] [°C] | Kd [5] [µM] | DSF huSTING (HAQ) ΔTm [3] [°C] |
| --- | --- | --- | --- | --- | --- | --- | --- |
| CCOc1cccc2sc(C(=O)O)c(-c3nc4cc(C(N)=O)ccc4n3CCn3c(-c4c(C(=O)O)sc5cccc(OCC)c45)nc4cc(C(N)=O)ccc43)c12 [Example 24, 3,3′-(Ethane-1,2-diylbis(5-carbamoyl-1H-benzo[d]imidazole-1,2-diyl))bis(4-ethoxybenzo[b]thiophene-2-carboxylic acid)] | > 40 | > 40 | 3.15 | -0.39 |  | 37 |  |
| NC(=O)c1ccc2c(c1)nc(-c1c(C(=O)O)sc3cccc(Cl)c13)n2CCn1c(-c2c(C(=O)O)sc3cccc(Cl)c23)nc2cc(C(N)=O)ccc21 (single isomer, unassigned) [Example 1.2, 3,3′-(Ethane-1,2-diylbis(5-carbamoyl-1H-benzo[d]imidazole-1,2-diyl))bis(4-chlorobenzo[b]thiophene-2-carboxylic acid)] | 14.2 | 6.33 |  |  | −7.14 |  | 0.13 |
| NC(=O)c1ccc2c(c1)nc(-c1c(C(=O)O)sc3c(F)ccc(Br)c13)n2CCn1c(-c2c(C(=O)O)sc3c(F)ccc(Br)c23)nc2cc(C(N)=O)ccc21 (single isomer, unassigned) [Example 20.2, 3,3′-(Ethane-1,2-diylbis(5-carbamoyl-1H-benzo[d]imidazole-1,2-diyl))bis(4-bromo-7-fluorobenzo[b]thiophene-2-carboxylic acid)] | 14.7 | 5.81 |  |  | −4.12 |  | 0.44 |
